Laboratory results published in patent US20100004459A1, “2-PHENYLNICOTINIC ACID DERIVATIVE” (NIPPON ZOKI PHARMACEUTICAL CO., LTD., priority 2006, published 2010).

Experiments:
xanthine oxidase = target: T1, xanthine oxidase (Bos taurus, UniProt P80457); test: Test for xanthine oxidase inhibitory activity; format: biochemical; conditions: xanthine oxidase derived from milk (Sigma); substrate xanthine; uric acid production at OD 292 nm, 37° C.
T1 construct: derived from milk; manufactured by Sigma; purchased Sigma; host or cells: milk (natural source)
T1 sequence (P80457 whole entry): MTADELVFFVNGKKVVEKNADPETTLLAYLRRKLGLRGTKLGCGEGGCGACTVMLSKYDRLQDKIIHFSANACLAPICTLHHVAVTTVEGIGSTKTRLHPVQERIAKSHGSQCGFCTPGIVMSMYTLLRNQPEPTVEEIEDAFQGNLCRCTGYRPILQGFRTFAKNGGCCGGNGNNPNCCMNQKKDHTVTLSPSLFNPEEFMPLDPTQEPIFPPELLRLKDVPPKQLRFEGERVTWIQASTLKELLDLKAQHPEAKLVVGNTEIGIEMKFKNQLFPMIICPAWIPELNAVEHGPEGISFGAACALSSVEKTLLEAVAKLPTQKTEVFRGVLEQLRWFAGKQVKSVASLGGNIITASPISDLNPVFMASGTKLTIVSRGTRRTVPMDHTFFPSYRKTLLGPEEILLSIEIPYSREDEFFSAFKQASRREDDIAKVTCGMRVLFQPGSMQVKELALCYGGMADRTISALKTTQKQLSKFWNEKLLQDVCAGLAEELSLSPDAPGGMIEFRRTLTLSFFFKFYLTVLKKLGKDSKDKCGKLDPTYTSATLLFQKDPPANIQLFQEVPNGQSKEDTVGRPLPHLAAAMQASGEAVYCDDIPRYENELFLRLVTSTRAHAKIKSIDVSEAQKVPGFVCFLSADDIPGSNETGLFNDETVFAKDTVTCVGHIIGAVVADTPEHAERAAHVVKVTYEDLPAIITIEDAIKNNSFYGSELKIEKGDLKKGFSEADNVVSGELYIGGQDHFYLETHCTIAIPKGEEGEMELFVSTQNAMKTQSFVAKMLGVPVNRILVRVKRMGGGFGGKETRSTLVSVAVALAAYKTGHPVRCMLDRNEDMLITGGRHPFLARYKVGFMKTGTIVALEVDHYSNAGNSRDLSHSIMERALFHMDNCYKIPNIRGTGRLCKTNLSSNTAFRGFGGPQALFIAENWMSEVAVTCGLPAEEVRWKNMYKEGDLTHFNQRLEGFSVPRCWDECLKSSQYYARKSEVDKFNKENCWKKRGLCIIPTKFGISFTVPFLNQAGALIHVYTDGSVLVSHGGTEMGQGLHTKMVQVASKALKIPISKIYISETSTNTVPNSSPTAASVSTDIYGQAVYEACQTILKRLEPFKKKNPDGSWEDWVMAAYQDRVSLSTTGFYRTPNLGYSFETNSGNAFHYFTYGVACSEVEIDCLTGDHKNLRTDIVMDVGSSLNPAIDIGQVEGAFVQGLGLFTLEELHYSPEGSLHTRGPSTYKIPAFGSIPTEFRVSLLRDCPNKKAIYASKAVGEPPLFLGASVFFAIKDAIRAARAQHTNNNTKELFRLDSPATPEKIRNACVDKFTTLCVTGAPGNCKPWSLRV
Procedure: Evaluation of inhibitory activity of the present invention to xanthine oxidase was conducted using xanthine as a substrate by measuring the amount of uric acid produced by xanthine oxidase which is an oxidizing enzyme therefor. Thus, xanthine oxidase (0.01 unit/L, 20 μL/well; derived from milk; manufactured by Sigma), diethylenetriamine pentaacetate (0.01 mol/L, 20 μL/well), phosphate buffer (20 μL/well), distilled water (100 μL/well) and a diluted solution (20 μL/well) of a test substance were mixed in a 96-well quartz microplate. After preincubating for 5 minutes in a microplate spectrophotometer warmed at 37° C., xanthine (1 mmol/L, 20 μL/well) was added. The changes with elapse of time in OD 292 nm based on the production of uric acid was measured using a microplate spectrophotometer warmed at 37° C. whereby the initial reaction velocity was measured. Xanthine oxidase inhibitory activity was calculated by the following formula and concentration of the test substance for 50% suppression (IC50 value) was calculated.
Inhibition Rate(%)={[(Initial Reaction Velocity of the Reaction Control)-(Initial Reaction Velocity upon Addition of Test Substance)]/[Initial Reaction Velocity of the Reaction Control]}×100

| Compound | melting point [°C] | IC50 (xanthine oxidase) [nM] |
| --- | --- | --- |
| N#Cc1cc(-c2ncccc2C(=O)O)ccc1OCC1CCC1 [Example 46, 2-(3-Cyano-4-cyclobutylmethoxyphenyl)nicotinic acid] | 204 to 205 | 83 |
| N#Cc1cc(-c2ncccc2C(=O)O)ccc1OCCCOc1ccc(Oc2ccccc2)cc1 [Example 71, 2-{3-Cyano-4-[3-(4-phenoxyphenoxy)propoxy]phenyl}nicotinic acid] | 149 to 150 | 90 |
| CC(C)(C)c1cc(CCCCOc2ccc(-c3ncccc3C(=O)O)cc2C#N)cc(C(C)(C)C)c1O [Example 90, 2-{3-Cyano-4-[4-(3,5-di-tert-butyl-4-hydroxyphenyl)butoxy]phenyl}nicotinic acid] |  | 37 |
| CCC1(COc2ccc(-c3ncccc3C(=O)O)cc2C#N)CCCC1 [Example 76, 2-[3-Cyano-4-(1-ethylcyclopentylmethoxy)phenyl]nicotinic acid] | 196 to 197 | 17 |
| CCCCCCOc1ccc(-c2ncccc2C(=O)O)cc1C#N [Example 49, 2-(3-Cyano-4-hexyloxyphenyl)nicotinic acid] | 187 to 188 | 63 |
| N#Cc1cc(-c2ncccc2C(=O)O)ccc1OCCCCc1ccccc1C(F)(F)F [Example 126, 2-{3-Cyano-4-[4-(2-trifluoromethylphenyl)butoxy]phenyl}nicotinic acid] |  | 26 |
| N#Cc1cc(-c2ncccc2C(=O)O)ccc1OCCCc1ccc(F)cc1 [Example 61, 2-{3-Cyano-4-[3-(4-fluorophenyl)propoxy]phenyl}nicotinic acid] | 177 to 178 | 56 |
| N#Cc1cc(-c2ncccc2C(=O)O)ccc1OCCCc1ccccc1C(F)(F)F [Example 118, 2-{3-Cyano-4-[3-(2-trifluoromethylphenyl)propoxy]phenyl}nicotinic acid] |  | 12 |
| COc1ccc(CCOc2ccc(-c3ncccc3C(=O)O)cc2C#N)cc1 [Example 53, 2-[3-Cyano-4-(4-methoxyphenethyloxy)phenyl]nicotinic acid] | 183 to 184 | 58 |
| N#Cc1cc(-c2ncccc2C(=O)O)ccc1OCC1CC1 [Example 45, 2-(3-Cyano-4-cyclopropylmethoxyphenyl)nicotinic acid] | 203 to 204 |  |
| COc1ccccc1CC(C)(C)COc1ccc(-c2ncccc2C(=O)O)cc1C#N [Example 112, 2-{3-Cyano-4-[2,2-dimethyl-3-(2-methoxyphenyl)propoxy]phenyl}nicotinic acid] |  | 28 |
| N#Cc1cc(-c2ncccc2C(=O)O)ccc1OCCCCc1ccccc1F [Example 64, 2-{3-Cyano-4-[4-(2-fluorophenyl)butoxy]phenyl}nicotinic acid] | 151 to 152 | 33 |
| N#Cc1cc(-c2ncccc2C(=O)O)ccc1OCc1ccc(C(F)(F)F)cc1 [Example 50, 2-[3-Cyano-4-(4-trifluoromethylbenzyloxy)phenyl]nicotinic acid] | 226 to 227 | 83 |
| CC(C)(C)c1cc(CCCOc2ccc(-c3ncccc3C(=O)O)cc2C#N)cc(C(C)(C)C)c1O [Example 88] |  | 47 |
| CC(C)(COc1ccc(-c2ncccc2C(=O)O)cc1C#N)Cc1ccc(C(F)(F)F)cc1 [Example 106, 2-{3-Cyano-4-[2,2-dimethyl-3-(4-trifluoromethylphenyl)propoxy]phenyl}nicotinic acid] |  | 25 |
| CC(C)(C)COc1ccc(-c2ncc(F)cc2C(=O)O)cc1C#N [Example 140, 2-[3-Cyano-4-(2,2-dimethylpropoxy)phenyl]-5-fluoronicotinic acid] |  | 40 |
| COc1ccc(-c2ncccc2C(=O)O)cc1C#N [Example 43, 2-(3-Cyano-4-methoxyphenyl)nicotinic acid] | 254 to 255 |  |
| N#Cc1cc(-c2ncccc2C(=O)O)ccc1OCCC1CCCCC1 [Example 48, 2-[3-Cyano-4-(2-cyclohexylethoxy)phenyl]nicotinic acid] | 171 to 172 | 38 |
| N#Cc1cc(-c2ncccc2C(=O)O)ccc1OCCCCc1ccc(C(F)(F)F)cc1 [Example 63, 2-{3-Cyano-4-[4-(4-trifluoromethylphenyl)butoxy]phenyl}nicotinic acid] | 165 to 166 | 97 |
| COc1ccc(CCCCOc2ccc(-c3ncccc3C(=O)O)cc2C#N)cc1 [Example 134, 2-{3-Cyano-4-[4-(4-methoxyphenyl)butoxy]phenyl}nicotinic acid] |  | 18 |
| CC(C)COc1ccc(-c2ncccc2C(=O)O)cc1C#N [Example 44, 2-(3-Cyano-4-isobutoxyphenyl)nicotinic acid] | 178 to 179 | 91 |
| CC(C)(CCc1ccccc1)COc1ccc(-c2ncccc2C(=O)O)cc1C#N [Example 81, 2-[3-Cyano-4-(2,2-dimethyl-4-phenylbutoxy)phenyl]nicotinic acid] | 172 to 173 | 16 |

More lines, in order of falling IC50 (xanthine oxidase), values ahead:

| melting point [°C] | IC50 (xanthine oxidase) [nM] | Compound |
| --- | --- | --- |
|  | 99 | CS(=O)(=O)Oc1ccc(CCOc2ccc(-c3ncccc3C(=O)O)cc2C#N)cc1 [Example 86, 2-{3-Cyano-4-[2-(4-methanesulfonyloxyphenyl)ethoxy]phenyl}nicotinic acid] |
|  | 91 | COc1ccc(C(C)(C)COc2ccc(-c3ncccc3C(=O)O)cc2C#N)cc1 [Example 122, 2-{3-Cyano-4-[2-methyl-2-(4-methoxyphenyl)propoxy]phenyl}nicotinic acid] |
|  | 72 | Cc1ccc(C)c(CCOc2ccc(-c3ncccc3C(=O)O)cc2C#N)c1 [Example 130, 2-[3-Cyano-4-(2,5-dimethylphenethyloxy)phenyl]nicotinic acid] |
|  | 52 | N#Cc1cc(-c2ncccc2C(=O)O)ccc1OCCCc1ccccc1 [Example 116, 2-[3-Cyano-4-(3-phenylpropoxy)phenyl]nicotinic acid] |
| 173 to 174 | 49 | N#Cc1cc(-c2ncccc2C(=O)O)ccc1OCCCc1ccccc1F [Example 60, 2-{3-Cyano-4-[3-(2-fluorophenyl)propoxy]phenyl}nicotinic acid] |
| 196 to 197 | 38 | CC(C)(COc1ccc(-c2ncccc2C(=O)O)cc1C#N)Cc1ccccc1 [Example 80, 2-[3-Cyano-4-(2,2-dimethyl-3-phenylpropoxy)phenyl]nicotinic acid] |
|  | 35 | COc1ccc(CCCOc2ccc(-c3ncccc3C(=O)O)cc2C#N)cc1 [Example 120, 2-{3-Cyano-4-[3-(4-methoxyphenyl)propoxy]phenyl}nicotinic acid] |
|  | 34 | N#Cc1cc(-c2ncccc2C(=O)O)ccc1N1CCCCCC1 [Example 138, 2-(4-Azepan-1-yl-3-cyanophenyl)nicotinic acid] |
| 155 to 156 | 21 | CCCCC(C)(C)COc1ccc(-c2ncccc2C(=O)O)cc1C#N [Example 73, 2-[3-Cyano-4-(2,2-dimethylhexyloxy)phenyl]nicotinic acid] |
|  | 15 | CC(C)(COc1ccc(-c2ncccc2C(=O)O)cc1C#N)Cc1ccccc1C(F)(F)F [Example 132, 2-{3-Cyano-4-[2,2-dimethyl-3-(2-trifluoromethylphenyl)propoxy]phenyl}nicotinic acid] |
|  | 13 | COc1ccc(CC(C)(C)COc2ccc(-c3ncccc3C(=O)O)cc2C#N)cc1 [Example 104, 2-{3-Cyano-4-[2,2-dimethyl-3-(4-methoxyphenyl)propoxy]phenyl}nicotinic acid] |
